{"source": "patent US20260226417A1", "about": "“METHOD FOR INHIBITING AGING OF STEM CELLS” (ENCELL CO., LTD, priority 2023, published 2026)", "key": {"[1]": {"tested_on": "human umbilical cord blood-derived mesenchymal stem cells (UCB-MSCs/passage 16)", "assay": "β-galactosidase staining, senescent UCB-MSCs", "format": "cell-based", "details": "UCB-MSCs passage 16, 3 days", "description": "Human placenta-derived mesenchymal stem cells (pl-mscs) Were Isolated From Placentas Separated according to the previously reported method of Choi et al. (PLOS ONE, (2017) 12 (2): e0172642), umbilical cord blood-derived mesenchymal stem cells (UCB-MSCs) were isolated from the umbilical cord blood separated according to the method of Kim et al. (FEBS Letters, (2010) 584:3601-3608), and adipose tissue-derived mesenchymal stem cells (AD-MSCs) were isolated from adipose tissue separated according to the previously reported method of Palumbo et al. (Int. J. Mol. Sci. (2018) 19:1987).\n(§1) Each of the obtained mesenchymal stem cells was subcultured in aMEM (a-modified Minimum Essential Media) containing 10% fetal bovine serum (FBS) and 0.5% gentamicin (10 mg/ml).\n(§2) The replicative senescence models of human adipose-derived mesenchymal stem cells (AD-MSCs/passage 18), human bone marrow-derived mesenchymal stem cells (BM-MSCs/passage 15), human umbilical cord blood-derived mesenchymal stem cells (UCB-MSCs/passage 16), and human placenta-derived mesenchymal stem cells (PL-MSCs/passage 18) established as described above were treated with nervonic acid for 3 days, and β-galactosidase staining was performed to observe the extent of senescence."}, "[2]": {"tested_on": "human bone marrow-derived mesenchymal stem cells (BM-MSCs/passage 15)", "assay": "β-galactosidase staining, senescent BM-MSCs", "format": "cell-based", "details": "BM-MSCs passage 15, 3 days", "experimental": "Human bone marrow-derived mesenchymal stem cells (BM-MSCs) were purchased from Cambrex (Lonza, #PT-2501).\nas §1, §2"}, "[3]": {"tested_on": "Annexin V, an apoptosis marker, in muscle tissue", "assay": "Annexin V immunohistochemical staining in muscle tissue of muscle disease mouse model after injection of treated P18 cells", "format": "in vivo", "details": "P18 cells treated with 160 μM for 72 hours, 5×10^4 cells per mouse via tail vein, one week after injection", "experimental": "A replicative senescence model (P18) was treated with nervonic acid (160 μM) and then injected into a muscle disease mouse model to assess the effect of nervonic acid treatment on the therapeutic efficacy of the replicative senescence model (P18) in terms of reducing apoptosis in muscle tissue.\nSpecifically, the muscle disease mouse model used was C57BL/10ScSn-Dmdmdx/J (mdx mouse) , and C57BL/10J with the same genetic background was used as a control group. All experiments were conducted using mice aged 4 to 5 months. The cells to be injected were human umbilical cord-derived young mesenchymal stem cells (control group) (P5) and replicative senescence model (P18). […]\nIn order to assess the extent of apoptosis in the muscle tissue of a muscle disease mouse model after injecting mesenchymal stem cells for each condition, the extent of apoptosis in the tissue was determined through immunohistochemical staining for Annexin V, an apoptosis marker. […] Then, the secondary antibody (fluorescence-labeled polymer anti-rabbit) was added and incubated for […] followed by mounting, DAPI staining, washing, and then observation and photography under a fluorescence microscope."}, "[4]": {"tested_on": "SASP (senescence-associated secretory phenotype) markers MMP3, IGFBP5, IGFBP7", "assay": "qRT-PCR of SASP markers in replicative senescence model (P18)", "format": "cell-based, human", "details": "160 μM, 3 days", "experimental": "Additionally, there is a report in which the gene expression of SASP (senescence-associated secretory phenotype) is increased in senescent cells, so the expression of MMP3, IGFBP5, and IGFBP7 was assessed at the mRNA level through qRT-PCR.\nSpecifically, qRT-PCR performed in this example is as follows: after treating the replicative senescence model (P18) with nervonic acid for 3 days, total RNA was extracted using Trizol (Invitrogen, MA, USA) according to the method provided by the vendor. After quantifying the extracted total RNA, random hexamer and dNTP were added, and PCR was performed at 65° C. for 5 minutes. 5× SSIV buffer, 100 mM DTT, RNAse OUT, and Superscript IV RT were added and reverse transcription was performed to synthesize cDNA, and then qRT-PCR was performed to measure gene expression, and the expression levels were compared through 2^−ΔΔCt analysis."}, "[5]": {"tested_on": "replicative senescence model of human umbilical cord-derived mesenchymal stem cells (P18)", "assay": "β-galactosidase staining, extent of senescence, replicative senescence model (P18)", "format": "cell-based", "set-up": "dose or concentration left out as unconfirmed", "experimental": "Compared to the control cells (P5) in which the extent of senescence was 0.21 % of the total, the extent of senescence in the senescence-induced mesenchymal stem cells (P18) was increased to 42.44% of the total, confirming the progression of replicative senescence (FIGs. 1a and 1b). Specifically, individual cells (5×10^4/well) were suspended in a 6-well plate and stabilized for 24 hours, followed by adding β-galactosidase staining solution and staining for 24 hours, after which the extent of senescence was measured under a microscope.\nTherefore, it was confirmed that this concentration was an optimal concentration that inhibited the extent of senescence by inducing apoptosis specifically in the replicative senescence model (P18) without affecting the cytotoxicity of the control cells (P5)."}, "[6]": {"tested_on": "mesenchymal stem cell-positive markers CD44, CD73, CD90, CD105, CD166 and negative markers CD11b, CD14, CD19, CD34, CD45, HLA-DR", "assay": "Stemness analysis by FACS in replicative senescence model (P18)", "format": "cell-based, human", "details": "160 μM, 3 days", "experimental": "Example 6. Comparative analysis of stemness of gut microbiota-derived metabolite for senescence control A replicative senescence model (P18) was treated with nervonic acid (160 μM) to assess the effect thereof on stemness and adipogenesis.\nThe replicative senescence model (P18) was treated with nervonic acid (160 μM), and the expression changes of the mesenchymal stem cell-positive markers CD44, CD73, CD90, CD105, and CD166, as well as the mesenchymal stem cell-negative markers CD11b, CD14, CD19, CD34, CD45, and HLA-DR were confirmed through FACS.\nSpecifically, 3.6×10^6 cells treated with nervonic acid (160 μM) for 3 days were centrifuged, suspended in 1.2 ml of FACS buffer (PBS 98%+FBS 2%), and allowed to stand at room temperature for 30 minutes. Thereafter, 100 ul thereof was dispensed into each of 11 1.5 ml tubes (3×10^5 cells per tube), and a predetermined amount of antibody was added to each tube, followed by reaction at room temperature for 20 minutes in a light-blocking state. After washing by adding 200 μl of FACS buffer, centrifugation was performed at room temperature at 300 g for 5 minutes, the supernatant was removed, and the cells were suspended in 500 μl of FACS buffer and then transferred to a FACS tube for analysis."}}, "data": [{"smiles": "CCCCCCCC/C=C\\CCCCCCCCCCCCCC(=O)O", "note": "[nervonic acid]", "values": [{"measurement": "progression of senescence (β-galactosidase staining) compared to control group (DMSO)", "setting": "[1]", "result": "progression of senescence was significantly inhibited"}, {"measurement": "progression of senescence (β-galactosidase staining) compared to control group (DMSO)", "setting": "[2]", "result": "progression of senescence was significantly inhibited"}, {"measurement": "Annexin V expression level (immunohistochemical staining) compared to mdx control group", "setting": "[3]", "result": "significantly reduced"}, {"measurement": "IGFBP5 mRNA expression, fold compared to before treatment", "setting": "[4]", "result": "0.62±0.03", "unit": "fold"}, {"measurement": "IGFBP7 mRNA expression, fold compared to before treatment", "setting": "[4]", "result": "0.77±0.03", "unit": "fold"}, {"measurement": "MMP3 mRNA expression, fold compared to before treatment", "setting": "[4]", "result": "0.76±0.04", "unit": "fold"}, {"measurement": "extent of senescence (β-galactosidase staining), fold decrease compared to before treatment", "setting": "[5]", "result": "0.41±0.04", "unit": "fold"}, {"measurement": "expression of CD11b, a mesenchymal stem cell-negative marker", "setting": "[6]", "result": "decreased"}, {"measurement": "expression of mesenchymal stem cell-positive markers CD44, CD73, CD90, CD105, and CD166", "setting": "[6]", "result": "restored"}]}]}
